Legend:
BTK = BTK (Homo sapiens (Human), UniProt Q06187); test: In Vitro BTK Kinase Assay: Btk-PolyGAT-LS Assay; assay type: biochemical; details: BTK enzyme 0.25 nM, ATP 10 μM, polyGAT 100 nM, 30 minutes incubation, TRF readout; read-out: IC50
Procedure, shortened: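 Human BTK activity was measured with final 10 μM ATP and 100 nM polyGAT substrate in pH 7.5 Tris buffer with 10 mM MgCl2, DTT, Triton X-100 and casein.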

[1] = system: CD69 expression on CD19+ B cells in human whole blood stimulated with anti-human IgD; test: In Vitro whole blood CD69 Assay; assay type: cell-based; details: Homo sapiens, B-cell, human heparinized whole blood, anti-human IgD stimulation overnight, percentage of CD19+ B cells expressing CD69, flow cytometry; read-out: IC50

BTK, sequence (Q06187 whole entry): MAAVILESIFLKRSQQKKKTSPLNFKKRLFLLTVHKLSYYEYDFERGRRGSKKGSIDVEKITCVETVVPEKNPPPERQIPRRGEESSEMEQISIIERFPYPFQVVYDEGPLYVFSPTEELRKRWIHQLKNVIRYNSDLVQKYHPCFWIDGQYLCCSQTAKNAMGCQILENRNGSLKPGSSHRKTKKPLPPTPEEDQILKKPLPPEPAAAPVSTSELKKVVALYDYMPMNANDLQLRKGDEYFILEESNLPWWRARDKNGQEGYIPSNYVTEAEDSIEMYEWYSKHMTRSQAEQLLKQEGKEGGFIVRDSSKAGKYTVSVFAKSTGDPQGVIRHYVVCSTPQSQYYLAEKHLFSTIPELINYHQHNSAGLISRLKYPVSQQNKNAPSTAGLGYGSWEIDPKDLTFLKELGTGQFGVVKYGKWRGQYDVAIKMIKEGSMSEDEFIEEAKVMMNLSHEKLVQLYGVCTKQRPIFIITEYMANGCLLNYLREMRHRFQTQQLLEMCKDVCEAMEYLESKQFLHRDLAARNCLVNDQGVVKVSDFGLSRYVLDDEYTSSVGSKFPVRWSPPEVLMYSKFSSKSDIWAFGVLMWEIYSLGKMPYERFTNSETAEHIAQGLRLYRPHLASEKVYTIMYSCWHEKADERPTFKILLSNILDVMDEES

Row | Compound | IC50 (BTK) [nM] | IC50 [1] [nM]
1 | CC#CC(=O)N(CC(F)F)[C@H]1C[C@@](C)(Oc2nc(-c3cnn(C)c3)cn3nccc23)C1 [Example 233, N-(2,2-difluoroethyl)-N-((1s,3s)-3-methyl-3-((6-(1-methyl-1H-pyrazol-4-yl)pyrazolo[1,5-a]pyrazin-4-yl)oxy)cyclobutyl)but-2-ynamide] | < 1 | < 1000
2 | C=CC(=O)N1[C@H]2CC[C@@H]1[C@H](Oc1nc(-c3cnn(C)c3)cn3nccc13)C2 [Example 234, 1-((1R,2R,4S)-2-((6-(1-methyl-1H-pyrazol-4-yl)pyrazolo[1,5-a]pyrazin-4-yl)oxy)-7-azabicyclo[2.2.1]heptan-7-yl)prop-2-en-1-one] | < 1 | 1000 to 10000
3 | C=CC(=O)N1[C@@H]2CC[C@H]1[C@@H](Oc1nc(-c3cnn(C)c3)cn3nccc13)C2 [Example 235, 1-((1S,2S,4R)-2-((6-(1-methyl-1H-pyrazol-4-yl)pyrazolo[1,5-a]pyrazin-4-yl)oxy)-7-azabicyclo[2.2.1]heptan-7-yl)prop-2-en-1-one] | < 1 | < 1000

Reference: US20240083900A1, “PYRAZOLO[1,5-A]PYRAZINE DERIVATIVES AS BTK INHIBITORS” (BIOGEN MA INC., priority 2020, published 2024)
